From US20220089541A1, “Compounds for the Treatment of Kinase-Dependent Disorders” (Exelixis, Inc., priority 2019, published 2022)

Experiments:
[1] = target: T1, KDR (Homo sapiens, UniProt P35968); assay: KDR autophosphorylation ELISA in HUVEC cells; assay type: cell-based; settings: VEGF165-stimulated, phospho-KDR ELISA, 1 h compound incubation
T1 construct: host or cells: HUVEC (human umbilical vein endothelial cells)
Description: Example C: KDR Autophosphorylation ELISA in HUVEC Cells
umbilical vein endothelial cells or HUVEC (Lonza #C2519A) were seeded at 2×10^4 cells/well onto 96-well plates (Corning #3904), in EGM-2 growth medium (Lonza #CC-3162) containing 1% Penicillin Streptomycin (Thermo Fisher #15140-122). HUVEC cells were incubated at 37° C., 5% CO2 for 24 h and then starved for 24 h in serum-free EBM-2 basal medium (Lonza #CC-3156) containing 1% Penicillin Streptomycin. Test compounds were serially diluted to produce an 8-point dose curve in fresh serum-free medium to a final concentration of 0.3% DMSO (vehicle) and added to the cells and incubated for 1 h. Cells were then stimulated with 100 ng/mL recombinant human VEGF165 (R&D Systems #293-VE-500) for 5 min, washed with cold PBS, and immediately lysed with 130 μL of cold IX lysis buffer [20 mM Tris, 137 mM sodium chloride, 2 mM EDTA, 10% glycerol, 1% NP-40 alternative, 1 mM activated sodium orthovanadate, 1 mM PefaBloc SC (Sigma-Aldrich #11429868001), protease/phosphatase inhibitor tablet (Thermo Fisher #A32959)]. Lysates were collected and 100 μL/well added into the human phospho-KDR DuoSet IC ELISA (R&D Systems #DYC 1766-2). Assay was performed according to manufacturer's instructions and sample phospho-KDR concentrations were extrapolated using human phospho-KDR control (R&D Systems #841421) as a standard. Positive control wells (100% activity) contained VEGF165-stimulated, DMSO-treated cell lysates. Negative control wells (0% activity) contained non-stimulated cell lysates. IC50 values were calculated by nonlinear regression analysis using a 4-parameter logistic curve fit in ActivityBase XE (IDBS).

[2] = target: T2, Met (Homo sapiens, UniProt P08581); assay: Met autophosphorylation ELISA in PC-3 cells; assay type: cell-based; settings: PC-3 prostate cancer cells, HGF-stimulated, phospho-Met ELISA, 1 h compound incubation; read-out: c-Met IC50
T2 construct: host or cells: PC-3 prostate cancer cells
Description: Example B: Met Autophosphorylation ELISA in PC-3 Cells
PC-3 prostate cancer cells (ATCC #CRL-1435) were seeded at 4×10^4 cells/well onto 24-well plates (Greiner #662165), in DMEM (Thermo Fisher #11995-040) containing 10% FBS (Thermo Fisher #26140-079), 1% MEM NEAA (Thermo Fisher #11140-050), 1% GlutaMax (Thermo Fisher #35050-061), and 1% Penicillin Streptomycin (Thermo Fisher #15140-122). PC-3 cells were incubated at 37° C., 5% CO2 for 24 h and then starved for 3 h in serum-free medium. Test compounds were serially diluted to produce an 8-point dose curve in fresh serum-free medium to a final concentration of 0.3% DMSO (vehicle) and added to the cells and incubated for 1 h. Cells were then stimulated with 100 ng/mL recombinant human HGF (R&D Systems #294-HG-250) for 10 min, washed with cold PBS, and immediately lysed with 130 μL of cold IX lysis buffer [20 mM Tris, 137 mM sodium chloride, 2 mM EDTA, 10% glycerol, 1% NP-40 alternative, 1 mM activated sodium orthovanadate, 1 mM PefaBloc SC (Sigma-Aldrich #11429868001), protease/phosphatase inhibitor tablet (Thermo Fisher #A32959)]. Lysates were clarified by centrifugation and 100 μL/well added into the PathScan phospho-Met (panTyr) Sandwich ELISA (Cell Signaling Technology #7333). Assay was performed according to manufacturer's instructions. Positive control wells (100% activity) contained HGF-stimulated, DMSO-treated cell lysates. Negative control wells (0% activity) contained HGF-stimulated, reference inhibitor-treated cell lysates. IC50 values were calculated by nonlinear regression analysis using a 4-parameter logistic curve fit in ActivityBase XE (IDBS).

[3] = target: T3, AXL (Homo sapiens, UniProt P30530); assay: AXL autophosphorylation ELISA in A-172 cells; assay type: cell-based; settings: A-172 glioblastoma cells, Gas6-stimulated, phospho-AXL ELISA, 1 h compound incubation
T3 construct: host or cells: A-172 glioblastoma cells
T3 sequence (P30530 26-894): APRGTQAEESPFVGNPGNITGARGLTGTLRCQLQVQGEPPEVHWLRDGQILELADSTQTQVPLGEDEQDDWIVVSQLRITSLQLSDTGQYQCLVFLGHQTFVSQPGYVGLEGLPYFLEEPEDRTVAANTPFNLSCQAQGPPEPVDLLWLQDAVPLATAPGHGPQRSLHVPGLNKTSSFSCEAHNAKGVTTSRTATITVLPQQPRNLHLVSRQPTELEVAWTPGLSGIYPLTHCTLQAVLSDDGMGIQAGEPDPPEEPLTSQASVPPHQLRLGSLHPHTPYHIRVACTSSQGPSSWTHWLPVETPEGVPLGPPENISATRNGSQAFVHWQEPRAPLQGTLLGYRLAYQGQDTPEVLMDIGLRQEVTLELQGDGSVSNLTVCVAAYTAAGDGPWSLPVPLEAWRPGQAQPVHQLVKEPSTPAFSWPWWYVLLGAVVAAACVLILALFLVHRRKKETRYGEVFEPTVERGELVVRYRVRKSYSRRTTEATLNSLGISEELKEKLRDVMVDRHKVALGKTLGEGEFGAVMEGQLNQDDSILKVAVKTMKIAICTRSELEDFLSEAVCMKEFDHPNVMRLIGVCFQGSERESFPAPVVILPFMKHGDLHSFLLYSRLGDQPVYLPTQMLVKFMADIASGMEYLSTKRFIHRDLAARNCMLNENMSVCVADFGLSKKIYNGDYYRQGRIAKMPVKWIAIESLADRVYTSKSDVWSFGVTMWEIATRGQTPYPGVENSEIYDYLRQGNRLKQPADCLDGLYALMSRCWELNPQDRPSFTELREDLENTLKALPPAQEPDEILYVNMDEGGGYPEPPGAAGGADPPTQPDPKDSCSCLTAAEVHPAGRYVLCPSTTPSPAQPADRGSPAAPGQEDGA
Description: Example A: AXL Autophosphorylation ELISA in A-172 Cells
A-172 glioblastoma cells (ATCC #CRL-1620) were seeded at 2.5×10^5 cells/well onto 24-well plates (Greiner #662165), in DMEM (Thermo Fisher #11995-040) containing 10% FBS (Thermo Fisher #26140-079), 1% MEM NEAA (Thermo Fisher #11140-050), 1% GlutaMax (Thermo Fisher #35050-061), and 1% Penicillin Streptomycin (Thermo Fisher #15140-122). A-172 cells were incubated at 37° C., 5% CO2 for 24 h and then starved for 24 h in serum-free medium. Test compounds were serially diluted to produce an 8-point dose curve in fresh serum-free medium to a final concentration of 0.3% DMSO (vehicle) and added to the cells and incubated for 1 h. Cells were then stimulated with 1 μg/mL recombinant human Gas6 (R&D Systems #885-GSB-500) for 15 min, washed with cold PBS, and immediately lysed with 150 μL of cold IX lysis buffer [20 mM Tris, 137 mM sodium chloride, 2 mM EDTA, 10% glycerol, 1% NP-40 alternative, 1 mM activated sodium orthovanadate, 1 mM PefaBloc SC (Sigma-Aldrich #11429868001), protease/phosphatase inhibitor tablet (Thermo Fisher #A32959)]. Lysates were collected and 100 μL/well added into the human phospho-AXL DuoSet IC ELISA (R&D Systems #DYC2228-2). Assay was performed according to manufacturer's instructions and sample phospho-AXL concentrations were extrapolated using human phospho-AXL control (R&D Systems #841645) as a standard. Positive control wells (100% activity) contained Gas6-stimulated, DMSO-treated cell lysates. Negative control wells (0% activity) contained Gas6-stimulated, reference inhibitor-treated cell lysates. IC50 values were calculated by nonlinear regression analysis using a 4-parameter logistic curve fit in ActivityBase XE (IDBS).

[4] = microsomes, pH 7.4
Description: (§1) Liver microsomes tissue fractions were used for in vitro assessment of metabolic stability of compounds by cytochrome P450 (CYP450) (for example, CYP3A4, CYP2C9) mediated phase I oxidation, and metabolism through other pathways. Human, mouse, rat, and dog liver microsomes tissue fractions were obtained from Corning Gentest and BioreclamationIVT.
(§2) The assay was carried out in 96-well microtiter plates. Compounds were incubated (N=l) at 37° C. in the presence of liver microsomes. Reaction mixtures (25 μL) contained a final concentration of 1 μM test compound, 0.5 mg/mL liver microsomes (LM) protein, and 1 mM NADPH in 100 mM potassium phosphate, pH 7.4 buffer with 3.3 mM MgCl2. The extent of metabolism was calculated as the disappearance of the test compound, compared to the 0-min control reaction incubations. Verapamil was included as a positive control to verily assay performance.
(§3) At each of the four time points, 150 μL of quench solution (100% acetonitrile with 0.1% formic acid) with internal standard (bucetin for positive ESI mode) was transferred to each well. Plates were sealed and centrifuged at 10° C. for 15 minutes at 4000 rpm. The supernatant was transferred to fresh plates for LC/MS/MS analysis.
(§4) All samples were analyzed on LC/MS/MS using an AB Sciex API 4000 instrument, coupled to a Shimadzu LC-20AD LC Pump system. Analytical samples were separated using a Waters Atlantis T3 dC18 reverse phase HPLC column (20 mm×2.1 mm) at a flow rate of 0.5 mL/min. The mobile phase consisted of 0.1% formic acid in water (solvent A) and 0.1% formic acid in 100% acetonitrile (solvent B).

[5] = microsomes, pH 7.4; remark: listed apart in the source
Description: as §1, §2, §3, §4

[6] = microsomes, pH 7.4; remark: listed apart in the source
Description: as §1, §2, §3, §4

[7] = Microsomal assay, rat liver microsome stability; settings: liver microsomes, pH 7.4
Description: as §1, §2, §3, §4

[8] = Microsomal assay, human liver microsome stability; settings: liver microsomes, pH 7.4
Description: as §1, §2, §3, §4

[9] = Microsomal assay, mouse liver microsome stability; settings: liver microsomes, pH 7.4
Description: as §1, §2, §3, §4

T1 sequence (P35968 20-1356): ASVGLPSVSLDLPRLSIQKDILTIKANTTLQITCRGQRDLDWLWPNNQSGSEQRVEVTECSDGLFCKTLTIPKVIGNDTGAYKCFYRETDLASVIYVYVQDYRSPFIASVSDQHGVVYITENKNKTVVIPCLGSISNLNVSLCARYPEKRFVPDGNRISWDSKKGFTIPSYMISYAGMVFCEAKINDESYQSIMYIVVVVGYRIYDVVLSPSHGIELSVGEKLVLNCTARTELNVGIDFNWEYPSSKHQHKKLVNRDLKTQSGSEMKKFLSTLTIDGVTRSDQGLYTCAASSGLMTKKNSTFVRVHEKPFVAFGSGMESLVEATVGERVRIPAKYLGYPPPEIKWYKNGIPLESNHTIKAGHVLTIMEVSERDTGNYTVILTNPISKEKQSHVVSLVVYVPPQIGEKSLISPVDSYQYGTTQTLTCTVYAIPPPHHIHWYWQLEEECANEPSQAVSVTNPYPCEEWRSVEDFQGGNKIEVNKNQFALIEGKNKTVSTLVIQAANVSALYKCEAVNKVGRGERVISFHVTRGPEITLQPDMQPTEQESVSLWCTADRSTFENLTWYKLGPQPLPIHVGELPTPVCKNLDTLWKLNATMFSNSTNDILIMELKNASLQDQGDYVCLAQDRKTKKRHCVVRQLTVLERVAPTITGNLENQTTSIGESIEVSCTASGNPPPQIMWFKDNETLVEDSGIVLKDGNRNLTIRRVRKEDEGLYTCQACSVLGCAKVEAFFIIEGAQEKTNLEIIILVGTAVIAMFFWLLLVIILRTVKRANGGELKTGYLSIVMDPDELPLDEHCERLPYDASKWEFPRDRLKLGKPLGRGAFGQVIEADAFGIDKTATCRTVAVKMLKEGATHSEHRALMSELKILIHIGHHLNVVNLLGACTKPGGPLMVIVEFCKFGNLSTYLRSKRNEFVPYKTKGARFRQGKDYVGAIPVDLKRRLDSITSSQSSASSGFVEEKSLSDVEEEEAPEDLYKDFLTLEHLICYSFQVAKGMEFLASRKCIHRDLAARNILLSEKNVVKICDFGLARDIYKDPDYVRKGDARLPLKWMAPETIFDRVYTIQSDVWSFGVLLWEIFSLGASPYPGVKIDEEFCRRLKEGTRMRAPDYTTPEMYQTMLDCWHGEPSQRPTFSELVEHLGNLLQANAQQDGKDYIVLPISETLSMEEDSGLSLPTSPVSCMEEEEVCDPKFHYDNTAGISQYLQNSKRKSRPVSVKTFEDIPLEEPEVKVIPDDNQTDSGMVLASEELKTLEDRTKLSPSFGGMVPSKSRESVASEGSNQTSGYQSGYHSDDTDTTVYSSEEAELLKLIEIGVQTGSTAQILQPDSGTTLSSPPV
T2 sequence (P08581 25-1390): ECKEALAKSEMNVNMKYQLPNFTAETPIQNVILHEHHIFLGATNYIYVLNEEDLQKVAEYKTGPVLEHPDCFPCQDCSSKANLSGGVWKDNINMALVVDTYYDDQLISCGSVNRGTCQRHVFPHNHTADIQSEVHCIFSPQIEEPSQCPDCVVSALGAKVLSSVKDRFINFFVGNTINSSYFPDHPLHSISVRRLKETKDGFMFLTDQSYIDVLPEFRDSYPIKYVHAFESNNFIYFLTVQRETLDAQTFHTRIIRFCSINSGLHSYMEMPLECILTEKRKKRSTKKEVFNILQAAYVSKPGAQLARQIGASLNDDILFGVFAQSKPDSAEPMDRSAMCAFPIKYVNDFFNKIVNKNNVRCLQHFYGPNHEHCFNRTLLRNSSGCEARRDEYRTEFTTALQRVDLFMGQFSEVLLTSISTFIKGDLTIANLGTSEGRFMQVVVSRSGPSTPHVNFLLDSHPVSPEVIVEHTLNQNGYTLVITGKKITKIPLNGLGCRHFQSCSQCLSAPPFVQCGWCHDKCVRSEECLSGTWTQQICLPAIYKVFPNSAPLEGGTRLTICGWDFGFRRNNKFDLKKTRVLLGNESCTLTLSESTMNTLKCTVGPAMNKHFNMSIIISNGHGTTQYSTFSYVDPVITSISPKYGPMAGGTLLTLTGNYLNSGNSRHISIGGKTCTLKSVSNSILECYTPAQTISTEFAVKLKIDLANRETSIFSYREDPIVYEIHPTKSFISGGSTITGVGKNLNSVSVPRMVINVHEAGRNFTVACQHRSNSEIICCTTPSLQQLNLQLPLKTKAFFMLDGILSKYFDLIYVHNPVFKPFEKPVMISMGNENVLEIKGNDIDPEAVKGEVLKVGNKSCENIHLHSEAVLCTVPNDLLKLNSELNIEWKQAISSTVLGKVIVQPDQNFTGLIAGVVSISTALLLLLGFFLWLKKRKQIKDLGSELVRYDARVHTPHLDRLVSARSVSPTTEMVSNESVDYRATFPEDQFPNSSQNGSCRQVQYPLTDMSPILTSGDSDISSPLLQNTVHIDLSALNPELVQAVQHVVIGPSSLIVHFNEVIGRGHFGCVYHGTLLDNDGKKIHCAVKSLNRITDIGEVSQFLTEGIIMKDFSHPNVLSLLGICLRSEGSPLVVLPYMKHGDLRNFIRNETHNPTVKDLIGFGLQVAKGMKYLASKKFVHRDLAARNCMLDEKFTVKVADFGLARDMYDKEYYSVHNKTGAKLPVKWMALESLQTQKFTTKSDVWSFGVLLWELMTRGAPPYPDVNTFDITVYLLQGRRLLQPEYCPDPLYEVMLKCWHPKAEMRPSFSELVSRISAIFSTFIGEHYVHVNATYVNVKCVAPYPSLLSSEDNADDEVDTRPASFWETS

IC50 [1] | IC50 [2] | IC50 [3] | Mouse Liver Microsome Stability CLint (μL/min/million cells) [4] | Mouse Liver Microsome Stability t½ [4] | Rat Liver Microsome Stability CLint (μL/min/million cells) [5] | Rat Liver Microsome Stability t½ [5] | Human Liver Microsome Stability CLint (μL/min/million cells) [6] | Human Liver Microsome Stability t½ [6] | half-life at 1 μM [7] | half-life at 1 μM [8] | half-life at 1 μM [9] | Molecule
> 300 nM | > 300 nM | > 300 nM | – | – | – | – | – | – | – | – | – | COc1cc2nccc(Oc3ccc(NC(=O)C4(C(=O)N(C)c5ccc(F)cc5)CC4)cc3F)c2nc1OC [Compound 44, 1-N-[4-[(6,7-Dimethoxy-1,5-naphthyridin-4-yl)oxy]-3-fluorophenyl]-1-N′-(4-fluorophenyl)-1-N′-methylcyclopropane-1,1-dicarboxamide]
– | – | – | 928 | 1.49 min | 1028 | 1.35 min | 1052 | 1.3 min | – | – | – | 1-N-[4-(6,7-Dimethoxyquinolin-4-yl)oxyphenyl]-1-N′-(4-fluorophenyl)-1-N′-(methoxymethyl)cyclopropane-1,1-dicarboxamide [Compound 49]
> 300 nM | > 300 nM | – | – | – | – | – | – | – | 1.6 min | 1.6 min | 7.3 min | COc1cc2c(Oc3ccc(NC(=O)C4(C(=O)N(C)c5ccc(F)cc5)CC4)cc3F)ccnc2cc1OCCCN1CCOCC1 [Compound 11, N-(3-Fluoro-4-((6-methoxy-7-(3-morpholinopropoxy)quinolin-4-yl)oxy)phenyl)-N-(4-fluorophenyl)-N-methylcyclopropane-1,1-dicarboxamide]
